As usually defined, the IC50 is the concentration that inhibits the measured activity by half. As usually defined, the EC50 is the concentration giving half of the maximal effect. As a reminder, the CC50 is the concentration giving 50% cytotoxicity.

Like-named read-outs stand apart in the source and are kept apart here.

We go through eight compounds from article PMC9230533, “Discovery of Triple Inhibitors of Both SARS-CoV-2 Proteases and Human Cathepsin L” (Pharmaceuticals, 2022).

One series has as its system SARS-CoV PLpro. The note with it: cited from earlier work.
A further series has as its system SARS-CoV-2. In words: SARS-CoV-2 infectivity cells-based assay (Huh7.5.1, immunofluorescence), antiviral efficacy. It counts as cell-based. The note with it: for EC50: Severe acute respiratory syndrome coronavirus 2, Huh-7.5.1, 48 h, read-out: SARS-CoV-2 Infectivity Cells-Based Assay EC50; for CC50/EC50 Ratio (therapeutic ratio): CC50 over EC50.
The target of the next series is T1, human cathepsin L (Homo sapiens, UniProt P07711).
T1 construct: purchased R & D Systems
Put plainly: Human cathepsin L fluorogenic enzymatic inhibition assay. The conditions noted are these: for inhibitory effect on cathepsin L (in words): dose-response, Figure 4. Type of series: biochemical.

For series [1] the following is noted: cited from earlier work.
The nature of series [2]: Cell viability / cytotoxicity in the SARS-CoV-2 Huh7.5.1 infectivity assay. The note with it: human, Huh7.5.1 cells infected with SARS-CoV-2 (MOI 1.0), tested 60 to 0.08 µM, read-out: SARS-CoV-2 Infectivity Cells-Based Assay CC50 (converted).
A further series deals with SARS-CoV-2 Mpro (Severe acute respiratory syndrome coronavirus 2, UniProt P0DTD1). Put plainly: SARS-CoV-2 Mpro fluorometric (FRET peptide) enzymatic inhibition assay. The note with it: for fold more potent than disulfiram against Mpro: ratio of IC50 values vs disulfiram. It counts as biochemical.
Another series addresses SARS-CoV-2 PLpro (Severe acute respiratory syndrome coronavirus 2, UniProt P0DTD1). Put plainly: SARS-CoV-2 PLpro fluorogenic enzymatic inhibition assay. Type of series: biochemical.
A short description of series [3]: Oral median lethal dose in mice (literature). The note with it: mouse, ratio of cited LD50 values. Type of series: in vivo.
Setting [4] is: 50 nM Mpro, 10 µM MCA-[…]-K(DNP)-K-NH2, no DTT, 37 °C, read-out: Mpro IC50.
Setting [5] is: 1 nM cathepsin L, Z-Phe-Arg-AMC substrate, read-out: Cathepsin L IC50.
The mark [6] stands for this setting: 24.46 nM PLpro, 50 µM Z-RLRGG-AMC, no DTT, 37 °C, read-out: PLpro IC50.

T1 sequence (P07711 114-333): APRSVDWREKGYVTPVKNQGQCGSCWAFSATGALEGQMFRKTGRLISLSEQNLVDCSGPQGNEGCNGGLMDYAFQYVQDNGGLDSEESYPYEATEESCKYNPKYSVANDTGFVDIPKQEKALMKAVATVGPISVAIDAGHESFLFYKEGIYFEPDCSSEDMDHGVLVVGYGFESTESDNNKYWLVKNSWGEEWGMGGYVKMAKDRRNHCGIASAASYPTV

Turning to `CCN(CC)C(=S)SSC(=S)N(CC)CC` [Disulfiram, reference compound], the IC50 in the series on SARS-CoV PLpro was 24.1 µM; at human cathepsin L, 2.2 ± 1.4 µM. The EC50 with SARS-CoV-2 came out at 0.5 ± 0.2 µM. The “LD50 Mouse oral” value in series [1] is 1980 [29] mg/kg. The half-maximal cytotoxic concentration (CC50) at 48 h in series [2] is 0.9 µM.
For the compound `CN1CCN(C(=S)SSC(=S)N2CCN(C)CC2)CC1` [RI171, di-4-Methylpiperazine-thiuram disulfide], the IC50 at SARS-CoV-2 Mpro (setting [4]) is 3.2 ± 0.1 µM; at human cathepsin L (setting [5]) it was 4.5 ± 0.7 µM; at SARS-CoV-2 PLpro (setting [6]) it was 1.9 ± 0.1 µM. Moreover, the “CC50/EC50 Ratio (therapeutic ratio)” value in the series on SARS-CoV-2 (Huh7.5.1 cells) is reported as 0.9. Besides, the EC50 in the series with SARS-CoV-2 is 1.9 ± 0.2 µM. In addition, in series [1], the “LD50 Mouse oral” value is 100 [26] mg/kg. In addition, in series [2], the 50% cytotoxic concentration (CC50) at 48 h is 1.7 µM.
Turning to `S=C(SSC(=S)N1CCCC1)N1CCCC1` [RI172, di-Pyrrolidine-thiuram disulfide], the figures for the IC50 on SARS-CoV-2 Mpro, at human cathepsin L and at SARS-CoV-2 PLpro were 0.6 ± 0.1 µM, 0.2 µM and 0.7 µM, respectively. Moreover, the “fold more potent than disulfiram against Mpro” value on SARS-CoV-2 Mpro is on record as 2.5 fold. Moreover, in the series on SARS-CoV-2, the half-maximal effective concentration (EC50) was below 0.08 µM. In series [2], the 50% cytotoxic concentration (CC50) at 48 h is below 0.08 µM.
As for `S=C(SSC(=S)N1CCOCC1)N1CCOCC1` [RI173, di-Morpholine-thiuram disulfide], the IC50 on SARS-CoV-2 Mpro (setting [4]) was 0.6 ± 0.1 µM; at human cathepsin L (setting [5]), 1.7 ± 0.6 µM; at SARS-CoV-2 PLpro (setting [6]), 0.2 ± 0.1 µM. The “fold more potent than disulfiram against Mpro” value at SARS-CoV-2 Mpro is listed as 2.5 fold. Besides, the “concentration range of antiviral activity” value in the series on SARS-CoV-2 (Huh7.5.1 cells, MOI 1.0, 48 h) lay in the range of 100 to 200 nM. In addition, the “CC50/EC50 Ratio (therapeutic ratio)” value with SARS-CoV-2 (Huh7.5.1 cells) is recorded as 3. Further, in the series with SARS-CoV-2, the half-maximal effective concentration (EC50) was 0.1 µM. Besides, the “LD50 relative to LD50 of disulfiram” value in series [3] was “approximately 1.6 times”. Further, the “fold more potent than disulfiram against PLpro” value at SARS-CoV-2 PLpro (ratio of IC50 values vs disulfiram) amounted to 19 fold. For the same compound, the “LD50 Mouse oral” value in series [1] is 3250 [31] mg/kg. For the same compound, the CC50 at 48 h in series [2] was 0.3 µM.
With `CN(C)C(=S)SSC(=S)N(C)C` [RI174, tetra-Methyl-thiuram disulfide], the half-maximal inhibitory concentration (IC50) against SARS-CoV-2 Mpro stood at 2 ± 0.3 µM; against human cathepsin L, 16.9 ± 6.9 µM; against SARS-CoV-2 PLpro, 0.6 µM. The EC50 in the series with SARS-CoV-2 is below 0.08 µM. The “LD50 Mouse oral” value in series [1] was 1350 [33] mg/kg. Moreover, in series [2], the CC50 at 48 h was below 0.08 µM.
In the case of `CCOC(=S)SSC(=S)OCC` [RI175, O,O-di-Ethyl dithiobis-thioformate], the concentration for half-maximal inhibition (IC50) at SARS-CoV-2 Mpro is 0.3 ± 0.1 µM; against human cathepsin L, 1.9 ± 0.6 µM; against SARS-CoV-2 PLpro, 0.6 ± 0.1 µM. The “fold more potent than disulfiram against Mpro” value on SARS-CoV-2 Mpro is “about 5 fold”. In the series with SARS-CoV-2, the EC50 was above 60 µM. The “LD50 Mouse oral” value in series [1] is 1200 [32] mg/kg. Further, in series [2], the CC50 at 48 h is above 60 µM.
With `CN(C(=S)SSC(=S)N(C)c1ccccc1)c1ccccc1` [RI176, di-Methyl-di-Phenyl-thiuram disulfide], the 50% inhibitory concentration (IC50) on SARS-CoV-2 Mpro, at human cathepsin L (setting [5]) and at SARS-CoV-2 PLpro was above 50 µM each time. Moreover, on human cathepsin L, the “inhibitory effect on cathepsin L (in words)” value is on record as “did not seem to have any inhibitory effect”.
Turning to `CC(C)N(C(=S)SSC(=S)N(C(C)C)C(C)C)C(C)C` [RI177, tetra-IsoPropyl-thiuram disulfide], the IC50 against SARS-CoV-2 Mpro was 3.8 ± 0.6 µM; at human cathepsin L (setting [5]), above 50 µM; at SARS-CoV-2 PLpro, above 50 µM. For the same compound, the EC50 with SARS-CoV-2 is above 60 µM. Besides, the “inhibitory effect on cathepsin L (in words)” value on human cathepsin L was “did not seem to have any inhibitory effect”. Besides, the CC50 at 48 h in series [2] was above 60 µM.
